Test system: Globodera pallida eggs
Assay: Hatching accelerating effect evaluation test for Globodera pallida (liquid immersion test)
Assay type: in vivo
Conditions: for Average hatching rate at 1 ppm (%): optically active compounds; for Average hatching rate (%): 1 mL of 2 ppm test reagent solution added to 1 mL egg suspension, 16° C., about 2 weeks, two replicates
Method: A predetermined amount of compound (I) was dissolved in an aqueous solution containing 0.05% (v/v) of polyoxyethylene sorbitan monolaurate (Tween20) to prepare a 100 ppm solution of compound (I).
The 100 ppm solution of compound (I) was further diluted with a 0.05% (v/v) Tween20 aqueous solution to prepare a test reagent solution with a concentration of compound (I) of 2 ppm.
The cysts of Globodera pallida increased in a greenhouse before the previous year were isolated from the soil, immersed in distilled water and kept at 16° C. for about 2 weeks were crushed with a scalpel and the eggs were taken out to obtain an egg suspension. After preparing a density of approximately 600 eggs per mL, Tween 20 was added to a concentration of 0.05% (v/v). 1 mL of this egg suspension was put into a 13.5 mL screw cap glass vial (inner diameter: 2.1 cm, height: 4.8 cm), and 1 mL each of a test reagent solution with a concentration of compound (I) of 2 ppm was added. It was covered and kept at 16° C.
About 2 weeks later, 1 mL was taken out, and the number of hatching larvae and the number of eggs were counted under a stereomicroscope. Two replicates were installed for each compound, and the average hatching rate was calculated.

| SMILES | Average hatching rate at 1 ppm (%) | Average hatching rate (%) |
| --- | --- | --- |
| CC1(C)NC(=O)CC1c1ccccc1 (single isomer, unassigned) [1 (−), 5,5-dimethyl-4-phenyl-2-pyrrolidinone] | 87.7% |  |
| CC1(C)NC(=O)CC1c1ccc(Cl)cc1 (single isomer, unassigned) [3 (−), 5,5-dimethyl-4-(4-chlorophenyl)-2-pyrrolidinone] | 92.0% |  |
| CC1(C)NS(=O)(=O)CC1c1ccc(Cl)cc1 (single isomer, unassigned) [B-12 (−), 4-(4-chlorophenyl)-3,3-dimethylisothiazolidine-1,1-dioxide] | 94.6% |  |
| CC1(C)NC(=O)CC1c1ccccc1 (single isomer, unassigned; (+)) [1 (+), (+)-5,5-dimethyl-4-phenyl-2-pyrrolidinone] | 37.8% |  |
| Cc1ccc(C2CC(=O)NC2(C)C)cc1 (single isomer, unassigned; (+)) [2 (+), (+)-5,5-dimethyl-4-(4-methylphenyl)-2-pyrrolidinone] | 63.6% |  |
| CC1(C)NC(=O)CC1c1ccc(Cl)cc1 (single isomer, unassigned; (+)) [3 (+), (+)-5,5-dimethyl-4-(4-chlorophenyl)-2-pyrrolidinone] | 93.2% |  |
| CC1(C)NS(=O)(=O)CC1c1ccc(Cl)cc1 (single isomer, unassigned; (+)) [B-12 (+), (+)-4-(4-chlorophenyl)-3,3-dimethylisothiazolidine-1,1-dioxide] | 95.2% |  |
| Cc1ccc(C2CC(=O)NC2(C)C)cc1 (single isomer, unassigned; (-)) [Compound 2 (−), (−)-5,5-dimethyl-4-(4-methylphenyl)-2-pyrrolidinone] | 91.8% |  |
| CC1(C)NC(=O)[C@H]2C[C@]21c1ccccc1 (stereo in doubt) [Compound C-1, 4,4-dimethyl-5-phenyl-3-azabicyclo[3.1.0]hexan-2-one] |  | 94.0% |
| CC1(C)NC(=O)CC1c1ccccc1 (stereo not drawn) [Compound 1, 5,5-dimethyl-4-phenyl-2-pyrrolidinone] |  | 83.0% |
| COc1ccc(C2CC(=O)NC2(C)C)cc1 (stereo not drawn) [Compound 6, 5,5-dimethyl-4-(4-methoxyphenyl)-2-pyrrolidinone] |  | 38.0% |
| CC1(C)NC(=O)CC1c1ccc(C(F)(F)F)cc1 (stereo not drawn) [Compound 7, 5,5-dimethyl-4-(4-trifluoromethylphenyl)-2-pyrrolidinone] |  | 86.6% |
| CC1(C)NC(=O)CC1c1ccc(F)cc1 (stereo not drawn) [Compound 8, 5,5-dimethyl-4-(4-fluorophenyl)-2-pyrrolidinone] |  | 94.1% |
| Cc1cccc(C2CC(=O)NC2(C)C)c1 (stereo not drawn) [Compound 9, 5,5-dimethyl-4-(3-methylphenyl)-2-pyrrolidinone] |  | 72.3% |
| Cc1ccccc1C1CC(=O)NC1(C)C (stereo not drawn) [Compound 10, 5,5-dimethyl-4-(2-methylphenyl)-2-pyrrolidinone] |  | 69.2% |
| Cc1ccc(C)c(C2CC(=O)NC2(C)C)c1 (stereo not drawn) [Compound 11, 5,5-dimethyl-4-(2,5-dimethyl-phenyl)-2-pyrrolidinone] |  | 72.9% |
| CC1(C)NC(=O)CC1c1cc(F)c(F)c(F)c1 (stereo not drawn) [Compound 13, 5,5-dimethyl-4-(3,4,5-trifluoro-phenyl)-2-pyrrolidinone] |  | 62.6% |
| Cc1ccc(C2CC(=O)NC2(C)C)c(C)c1 (stereo not drawn) [Compound 14, 5,5-dimethyl-4-(2,4-dimethyl-phenyl)-2-pyrrolidinone] |  | 37.6% |
| CC1C(=O)NC(C)(C)C1c1ccccc1 (stereo not drawn) [Compound 15, 3,5,5-trimethyl-4-phenyl-2-pyrrolidinone] |  | 77.3% |
| CC1(C)NC(=S)CC1c1ccccc1 (stereo not drawn) [Compound 16, 5,5-dimethyl-4-phenyl pyrrolidine-2-thione] |  | 69.2% |

| SMILES | Average hatching rate at 1 ppm (%) | Average hatching rate (%) |
| --- | --- | --- |
| CC1(C)OC(=O)CC1c1ccccc1 (stereo not drawn) [Compound 17, 5,5-dimethyl-4-phenyldihydrofuran-2(3H)-one] |  | 58.6% |
| CC1(C)OC(=O)CC1c1ccc(F)cc1 (stereo not drawn) [Compound 19, 4-(4-fluorophenyl)-5,5-dimethyldihydrofuran-2(3H)-one] |  | 84.6% |
| Cc1ccccc1C1CC(=O)OC1(C)C (stereo not drawn) [Compound 20, 5,5-dimethyl-4-(o-tolyl)dihydrofuran-2(3H)-one] |  | 63.1% |
| CC1(C)CC(=O)CC1c1ccccc1 (stereo not drawn) [Compound 21, 3,3-dimethyl-4-phenyl-cyclopentanone] |  | 76.6% |
| CC1(C)NC(=O)CCC1c1ccccc1 (stereo not drawn) [Compound A-1] |  | 77.4% |
| CC1(C)NC(=O)CCC1c1ccc(Br)cc1 (stereo not drawn) [Compound A-2] |  | 97.4% |
| COC(=O)c1ccc(C2CCC(=O)NC2(C)C)cc1 (stereo not drawn) [Compound A-4] |  | 68.8% |
| CC1(C)SC(=O)CCC1c1ccccc1 (stereo not drawn) [Compound A-5] |  | 92.6% |
| CC1(C)SC(=O)CCC1c1ccc(Cl)cc1 (stereo not drawn) [Compound A-6, 5-(4-chlorophenyl)-6,6-dimethyl tetrahydro-2H-thiopyran-2-one] |  | 93.6% |
| Cc1ccc(C2CCC(=O)SC2(C)C)cc1 (stereo not drawn) [Compound A-7] |  | 93.9% |
| CC1(C)OC(=S)CC1c1ccccc1 (stereo not drawn) [Compound B-1] |  | 70.4% |
| Cc1ccc(C2CC(=S)OC2(C)C)cc1 (stereo not drawn) [Compound B-2, 5,5-dimethyl-4-(p-tolyl)dihydrofuran-2 (3H)-thione] |  | 86.6% |
| Cc1ccc(C)c(C2CC(=S)OC2(C)C)c1 (stereo not drawn) [Compound B-3] |  | 21.2% |
| CC1(C)SC(=O)CC1c1ccccc1 (stereo not drawn) [Compound B-4] |  | 96.3% |
| CC1(C)SC(=O)CC1c1ccc(Br)cc1 (stereo not drawn) [Compound B-5] |  | 96.9% |
| Cc1ccc(C2CC(=O)SC2(C)C)cc1 (stereo not drawn) [Compound B-6, 5,5-dimethyl-4-(p-tolyl)dihydrothiophene-2 (3H)-one] |  | 97.1% |
| CC1(C)SC(=O)CC1c1ccc(Cl)cc1 (stereo not drawn) [Compound B-7] |  | 96.6% |
| Cc1ccc(C)c(C2CC(=O)SC2(C)C)c1 (stereo not drawn) [Compound B-8] |  | 51.2% |
| CC1(C)NS(=O)(=O)CC1c1ccccc1 (stereo not drawn) [Compound B-9] |  | 69.5% |
| CC1(C)NS(=O)(=O)CC1c1ccc(Br)cc1 (stereo not drawn) [Compound B-10] |  | 82.7% |

| SMILES | Average hatching rate at 1 ppm (%) | Average hatching rate (%) |
| --- | --- | --- |
| Cc1ccc(C2CS(=O)(=O)NC2(C)C)cc1 (stereo not drawn) [Compound B-11] |  | 80.2% |
| CC1(C)NS(=O)(=O)CC1c1ccc(Cl)cc1 (stereo not drawn) [Compound B-12, 4-(4-chlorophenyl)-3,3-dimethylisothiazolidine-1,1-dioxide] |  | 93.0% |
| Cc1cccc(C2CC(=O)OC2(C)C)c1C [Compound D-1] |  | 65.6% |
| Cc1ccc(C2CC(=O)OC2(C)C)c(C)c1 [Compound D-2] |  | 94.7% |
| Cc1ccc(C2CC(=O)OC2(C)C)cc1C [Compound D-3] |  | 58.8% |
| Cc1cc(C)cc(C2CC(=O)OC2(C)C)c1 [Compound D-4] |  | 40.1% |
| CCc1ccc(C2CC(=O)OC2(C)C)cc1 [Compound D-5] |  | 56.6% |
| CC(C)(C)c1ccc(C2CC(=O)OC2(C)C)cc1 [Compound D-6] |  | 67.5% |
| CC1(C)NC(=O)CC1c1ccc(Cl)c(Cl)c1 [Compound D-7] |  | 95.2% |
| Cc1ccc(C2CC(=S)NC2(C)C)cc1 [Compound D-8] |  | 91.8% |
| CC1(C)OC(=O)C=C1c1ccc(Cl)cc1 [Compound D-9] |  | 50.1% |
| CC1(C)OC(=O)C=C1c1cccc2ccccc12 [Compound D-10] |  | 36.4% |
| CC1(C)OC(=O)C=C1c1ccc2ccccc2c1 [Compound D-11] |  | 59.0% |
| CC1(C)OC(=O)C=C1c1ccc(-c2ccc(Cl)cc2)cc1 [Compound D-12] |  | 52.0% |
| Cc1ccccc1C1=CC(=O)OC1(C)C [Compound D-13] |  | 60.1% |
| Cc1cccc(C2=CC(=O)OC2(C)C)c1C [Compound D-14] |  | 63.7% |
| Cc1ccc(C)c(C2=CC(=O)OC2(C)C)c1 [Compound D-16] |  | 66.5% |
| Cc1cc(C)cc(C2=CC(=O)OC2(C)C)c1 [Compound D-17] |  | 55.4% |
| Cc1ccccc1C1=CC(=O)NC1(C)C [Compound D-18] |  | 58.8% |
| Cc1ccc(C2=CC(=O)NC2(C)C)c(C)c1 [Compound D-19] |  | 95.7% |

From patent publication US20260240154A1, “GLOBODERA PALLIDA CONTROL AGENT” (National Agriculture and Food Research Organization, priority 2021, published 2026)
